Source: patent publication US20170190671A1, “BIS(ARYL)CATECHOL DERIVATIVES AS HERBICIDES” (E I DU PONT DE NEMOURS AND COMPANY, priority 2014, published 2017)

Tests used:
Experiment in all cases: Test F preemergence
Format in all cases: in vivo
Details in all cases: 21 days, scale 0 to 100
[1] = tested on: crabgrass, naked (naked crabgrass, Digitaria nuda)
Text: (§1) Seeds of plant species selected from bermudagrass (Cynodon dactylon), Surinam grass (Brachiaria decumbens), large (Lg) crabgrass (Digitaria sanguinalis), crabgrass, naked (naked crabgrass, Digitaria nuda), foxtail, green (green foxtail, Setaria viridis), johnsongrass (Sorghum halepense), kochia (Kochia scoparia), morningglory (pitted morningglory, Ipomoea lacunosa), nutsedge, purple (purple nutsedge, Cyperus rotundus), ragweed (common ragweed, Ambrosia elatior), mustard, black (black mustard, Brassica nigra), guineagrass (Panicum maximum), dallisgrass (Paspalum dilatatum), barnyardgrass (Echinochloa crus-galli), sandbur (southern sandbur, Cenchrus echinatus), sowthistle (common sowthistle, Sonchus oleraceous), Italian ryegrass (Lolium multiflorum), signalgrass (broadleaf signalgrass, Brachiaria platyphylla), dayflower (Virginia (VA) dayflower, Commelina virginica), bluegrass (annual bluegrass, Poa annua), quackgrass (Elytrigia repens), mallow (common mallow, Malva sylvestris), buckwheat, wild (wild buckwheat, Polygonum convolvulus), leafy spurge (Euphorbia esula), chickweed (common chickweed, Stellaria media), wild poinsettia (Euphorbia heterophylla), and pigweed (Amaranthus retroflexus) were planted into a blend of loam soil and sand and treated preemergence with test a chemical formulated in a non-phytotoxic solvent mixture which included a surfactant.
(§2) Treated plants and controls were maintained in a greenhouse for 21 days, after which time all species were compared to controls and visually evaluated. Plant response ratings, summarized in Table F, are based on a scale of 0 to 100 where 0 is no effect and 100 is complete control. A dash (-) response means no test result.

[2] = tested on: ragweed (common ragweed, Ambrosia elatior)
Text: as §1, §2

[3] = tested on: quackgrass (Elytrigia repens)
Text: as §1, §2

[4] = tested on: guineagrass (Panicum maximum)
Text: as §1, §2

[5] = tested on: large (Lg) crabgrass (Digitaria sanguinalis)
Text: as §1, §2

[6] = tested on: sowthistle (common sowthistle, Sonchus oleraceous)
Text: as §1, §2

[7] = tested on: leafy spurge (Euphorbia esula)
Text: as §1, §2

[8] = tested on: pigweed (Amaranthus retroflexus)
Text: as §1, §2

[9] = tested on: dayflower (Virginia (VA) dayflower, Commelina virginica)
Text: as §1, §2

[10] = tested on: mallow (common mallow, Malva sylvestris)
Text: as §1, §2

[11] = tested on: kochia (Kochia scoparia)
Text: as §1, §2

[12] = tested on: morningglory (pitted morningglory, Ipomoea lacunosa)
Text: as §1, §2

[13] = tested on: bermudagrass (Cynodon dactylon)
Text: as §1, §2

[14] = tested on: dallisgrass (Paspalum dilatatum)
Text: as §1, §2

[15] = tested on: wild poinsettia (Euphorbia heterophylla)
Text: as §1, §2

[16] = tested on: Surinam grass (Brachiaria decumbens)
Text: as §1, §2

[17] = tested on: nutsedge, purple (purple nutsedge, Cyperus rotundus)
Text: as §1, §2

N#Cc1cccc(Oc2ncc(Cl)cn2)c1Oc1ncc(Cl)cn1 [Compound 3, 2,3-bis[(5-chloro-2-pyrimidinyl)oxy]benzonitrile]
Plant response rating, Crabgrass, Naked ([1]; 62 g ai/ha): 100
Plant response rating, Crabgrass, Naked ([1]; 125 g ai/ha): 100
Plant response rating, Crabgrass, Naked ([1]; 250 g ai/ha): 100
Plant response rating, Ragweed ([2]; 62 g ai/ha): 85
Plant response rating, Ragweed ([2]; 125 g ai/ha): 100
Plant response rating, Ragweed ([2]; 250 g ai/ha): 100
Plant response rating, Quackgrass ([3]; 62 g ai/ha): 65
Plant response rating, Quackgrass ([3]; 125 g ai/ha): 90
Plant response rating, Quackgrass ([3]; 250 g ai/ha): 98
Plant response rating, Guineagrass ([4]; 62 g ai/ha): 100
Plant response rating, Guineagrass ([4]; 125 g ai/ha): 100
Plant response rating, Guineagrass ([4]; 250 g ai/ha): 100
Plant response rating, Crabgrass, Large ([5]; 62 g ai/ha): 100
Plant response rating, Crabgrass, Large ([5]; 125 g ai/ha): 100
Plant response rating, Crabgrass, Large ([5]; 250 g ai/ha): 100
Plant response rating, Sowthistle ([6]; 62 g ai/ha): 100
Plant response rating, Sowthistle ([6]; 125 g ai/ha): 100
Plant response rating, Sowthistle ([6]; 250 g ai/ha): 100
Plant response rating, Leafy Spurge ([7]; 62 g ai/ha): 98
Plant response rating, Leafy Spurge ([7]; 125 g ai/ha): 100
Plant response rating, Leafy Spurge ([7]; 250 g ai/ha): 98
Plant response rating, Pigweed ([8]; 62 g ai/ha): 100
Plant response rating, Pigweed ([8]; 125 g ai/ha): 100
Plant response rating, Pigweed ([8]; 250 g ai/ha): 100
Plant response rating, Dayflower, VA ([9]; 62 g ai/ha): 98
Plant response rating, Dayflower, VA ([9]; 125 g ai/ha): 100
Plant response rating, Dayflower, VA ([9]; 250 g ai/ha): 100
Plant response rating, Mallow ([10]; 62 g ai/ha): 100
Plant response rating, Mallow ([10]; 125 g ai/ha): 100
Plant response rating, Mallow ([10]; 250 g ai/ha): 100
Plant response rating, Kochia ([11]; 62 g ai/ha): 100
Plant response rating, Kochia ([11]; 125 g ai/ha): 100
Plant response rating, Kochia ([11]; 250 g ai/ha): 100
Plant response rating, Morningglory, Pitt ([12]; 62 g ai/ha): 100
Plant response rating, Morningglory, Pitt ([12]; 125 g ai/ha): 100
Plant response rating, Morningglory, Pitt ([12]; 250 g ai/ha): 100
Plant response rating, Bermudagrass ([13]; 62 g ai/ha): 100
Plant response rating, Bermudagrass ([13]; 125 g ai/ha): 100
Plant response rating, Bermudagrass ([13]; 250 g ai/ha): 100
Plant response rating, Dallisgrass ([14]; 62 g ai/ha): 100
Plant response rating, Dallisgrass ([14]; 125 g ai/ha): 100
Plant response rating, Dallisgrass ([14]; 250 g ai/ha): 100
Plant response rating, Poinsettia, Wild ([15]; 62 g ai/ha): 95
Plant response rating, Poinsettia, Wild ([15]; 125 g ai/ha): 95
Plant response rating, Poinsettia, Wild ([15]; 250 g ai/ha): 100
Plant response rating, Surinam Grass ([16]; 62 g ai/ha): 75
Plant response rating, Surinam Grass ([16]; 125 g ai/ha): 100
Plant response rating, Surinam Grass ([16]; 250 g ai/ha): 100
Plant response rating, Nutsedge, Purple ([17]; 62 g ai/ha): 40
Plant response rating, Nutsedge, Purple ([17]; 125 g ai/ha): 60
Plant response rating, Nutsedge, Purple ([17]; 250 g ai/ha): 85
